US9975848B2, “Inhibitors of HIV-1 entry and methods of use thereof” (priority 2014, dated 2018)
Several values for one entry are separate records, joined by “and”; a condition that tells them apart may be missing. Equal values may be shown once. Read-outs that look alike come from different tables or passages of the source.

Columns and labels:
[1] = system: AD8; assay: Infection by single-round luciferase viruses, HIV-1 AD8 envelope; format: cell-based; conditions: Human immunodeficiency virus 1, 48 h, read-out: AD8 (μM)
[2] = system: JR-FL; assay: Infection by single-round luciferase viruses, HIV-1 JR-FL envelope; format: cell-based; conditions: Human immunodeficiency virus 1, 48 h, read-out: JR-FL (μM)
[3] = system: A-MLV; assay: Infection by single-round luciferase viruses, control A-MLV envelope; format: cell-based, amphotropic murine leukemia virus; conditions: Murine leukemia virus, 48 h, read-out: A-MLV (μM)
Method: (§1) Compounds: Compounds are dissolved in dimethyl sulfoxide at a stock concentration of 10 mM, aliquoted, and stored at −20° C. Each compound is then diluted to 1 mM in serum-free Dulbecco's modified Eagle medium (DMEM) and used for different assays.
(§2) Cell Lines: 293T human embryonic kidney and Cf2Th canine thymocytes (ATCC) are grown at 37° C. and 5% CO2 in Dulbecco's modified Eagle's medium (Invitrogen) containing 10% fetal bovine serum (Sigma) and 100 μg/mL penicillin-streptomycin (Mediatech, Inc.). Cf2Th cells stably expressing human CCR5 and CD4 are grown in medium supplemented with 0.4 mg/mL G418 and 0.2 mg/mL hygromycin (Invitrogen).
(§3) Recombinant Luciferase Viruses: 293T human embryonic kidney cells were co-transfected with plasmids expressing the pCMVΔP1Δenv HIV-1 Gag-Pol packaging construct, the R5 YU2 envelope glycoproteins, or the envelope glycoprotein of the control amphotropic murine leukemia virus (A-MLV), and the firefly luciferase-expressing vector at a DNA ratio of 1:1:3 μg using the Effectene transfection reagent (Qiagen). Co-transfection produced single-round, replication-defective viruses. The virus-containing supernatants were harvested 36-40 h after transfection, spun, aliquoted, and frozen at −80° C. until further use. The reverse transcriptase (RT) activities of all viruses were measured as described in Rho, H. M., et al. Virology 1981, 112, 355-360.
(§4) Infection by Single-Round Luciferase Viruses. Cf2Th-CCR5-CD4 target cells were seeded at a density of 6×10^3 cells/well in 96-well luminometer-compatible tissue culture plates (PerkinElmer) 24 h before infection. On the day of infection, CD4-mimetic compounds of interest (0-100 μM) were incubated with recombinant viruses (10,000 RT units) at 37° C. for 30 min. In the case of sensitization assays, a constant concentration of compounds was incubated with virus for 30 min at 37° C.; then, 17b or other antibodies (0-100 μg/mL) were added to the virus/compound mixture and incubated for an additional 30 min at 37° C. The mixtures were then added to the target cells and incubated for 48 h at 37° C.; after this time, the medium was removed from each well, and the cells were lysed by the addition of 30 μL passive lysis buffer (Promega) and three freeze-thaw cycles. An EG&G Berthold Microplate Luminometer LB 96V was used to measure the luciferase activity of each well after the addition of 100 μL of luciferin buffer (15 mM MgSO4, 15 mM KPO4, pH 7.8, 1 mM ATP, and 1 mM dithiothreitol) and 50 μL of 1 mM Firefly D-Luciferin Free Acid 99% (Prolume).

[4] = molecular target: T1, monomeric YU-2 gp120 (Human immunodeficiency virus type 1 group M subtype B, UniProt P35961); assay: biochemical; format: binding, HIV-1; conditions: ITC, 25° C., PBS pH 7.4, 2% DMSO
T1 construct: containing monomeric YU-2 gp120 at a concentration of 2 μM
Method: Isothermal Titration Calorimetry. Thermodynamic parameters for the binding of the different inhibitors to gp120 were obtained by isothermal titration calorimetry (ITC) using a VP-ITC microcalorimeter from MicroCal/GE Healthcare (Northampton, Mass., USA). The titrations were performed at 25° C. by injecting 10 μL aliquots of inhibitor solution into the calorimetric cell (volume ˜1.4 mL) containing monomeric YU-2 gp120 at a concentration of 2 μM. […] In all titration experiments, gp120 and the different inhibitors were equilibrated with PBS, pH 7.4, with 2% DMSO. The heat evolved upon each injection of inhibitor was obtained by integration of the calorimetric signal. The heat associated with inhibitor binding to gp120 was obtained by subtracting the heat of dilution from the heat of reaction.

[5] = system: YU-2; assay: Infection by single-round luciferase viruses, HIV-1 YU-2 envelope; format: cell-based; conditions: Human immunodeficiency virus 1, 48 h, read-out: YU-2 (μM)
Method: as §1, §2, §3, §4

[6] = Evaluation of blood-brain barrier: brain and plasma concentrations; format: in vivo; conditions: 1 hr post IP at 5 mg/kg, female CD1 mice
Method: Compound BNM-III-170 was administered to mice under a protocol approved by the University of Pennsylvania Institutional Animal Care and Use Committee. Specifically, BNM-III-170, dissolved in DMSO, was administered IP at 5 mg/kg to 3 month old female CD1 mice. Mice were euthanized 1 hour post dose. Brain and plasma were then collected.
Hemi-brains were homogenized with 10 mM ammonium acetate pH 4.0 (50% w/v) using a sonic dismembrator. Brain homogenate and plasma were extracted with 4 parts (v/v) acetonitrile, vortexed, and centrifuged at 15,000 g for 10 minutes. Supernatants were analyzed by LC-MS/MS using a Waters Acuity UPLC-TQMS. Samples (5 μL) were separated using a BEH C18 column (1.7 μm, 2.1×50 mm) at 0.6 mL/min from 5 to 95% acetonitrile with 0.1% formic acid over 2 minutes. BNM-III-170 was detected in positive ion mode using selected reaction monitoring of a specific collision induced ion transition (447.3>184.1 m/z). Unknown peak areas were quantified against standard curves constructed with BNM-III-170 spiked mouse brain homogenate or plasma extracted as above to final concentrations from 1 to 1000 ng/mL.

[7] = Assessment of the maximum tolerated dose (MTD); conditions: mouse, in vivo, ip; intraperitoneal, CD-1 mice
Method: Procedure: (+)-BNM-III-170 was dissolved in DMSO to a final concentration of 10 mg/mL. This solution was then used for intraperitoneal administration to CD-1 mice at various doses to examine for visible signs of intolerance after compound dosing. This included an assessment of hyper- or hypoactivity, altered locomotion, ataxia, sedation, or other visible abnormalities. The compound was ultimately tested at three doses (30 mg/kg, 10 mg/kg and 3 mg/kg), as outlined below, with the amounts injected per mouse and the behavioral observations indicated for each dosing group.

[8] = molecular target: gp120 (Human immunodeficiency virus type 1 group M subtype B, UniProt P35961); conditions: background statement; cited from earlier work

## CNCc1ccc2c(c1)[C@H](NC(=O)C(=O)Nc1ccc(Cl)c(F)c1)[C@@H](CNC(=N)N)C2 [(+)-JP-III-048]
[1]
  IC50: 6.7 ± 0.6 µM
[2]
  IC50: 37.3 ± 13.8 µM
[3]
  IC50: > 100 µM
[4]
  Kd: 0.024 µM
  ΔG: -10.4 kcal/mol
  ΔH: -28.2 kcal/mol
  −TΔS (kcal/mol): +17.8 kcal/mol
[5]
  IC50: 2.1 ± 0.9 µM

## CNCc1ccc2c(c1)C[C@H](CNC(=N)N)[C@H]2NC(=O)C(=O)Nc1ccc(Cl)c(F)c1 [(+)-BNM-III-170]
[6]; individual mice 1-3
  B/P: 0.51 and 0.14 and 0.45
  Brain: 268 ng/g and 131 ng/g and 122 ng/g
  Plasma: 522 ng/mL and 910 ng/mL and 270 ng/mL
[6]; female, CD1, mouse, brain, ip, 5 mg/kg, AVG of 3 mice, read-out: B/P
  Kp at 1 h: 0.37
[6]; female, CD1, mouse, brain, ip, 5 mg/kg, AVG of 3 mice, read-out: Brain
  concentration at 1 h: 174 ng/g
[6]; female, CD1, mouse, plasma, ip, 5 mg/kg, AVG of 3 mice, read-out: Plasma
  concentration at 1 h: 567 ng/mL
[1]
  IC50: 6.4 ± 1 µM
[2]
  IC50: 14.2 ± 4.5 µM
[3]
  IC50: > 100 µM
[4]
  Kd: 0.047 µM
  ΔG: -10.0 kcal/mol
  ΔH: -20.7 kcal/mol
  −TΔS (kcal/mol): +10.7 kcal/mol
[5]
  IC50: 1.5 ± 0.8 µM
[7]
  MTD: 3 to 9 mg/kg

## CN(Cc1ccccc1)Cc1ccc2c(c1)C[C@H](CNC(=N)N)[C@H]2NC(=O)C(=O)Nc1ccc(Cl)c(F)c1 [(+)-BNM-IV-125]
[2]
  IC50: 14 ± 2 µM
[3]
  IC50: > 100 µM

## CN(Cc1ccc2c(c1)C[C@H](CNC(=N)N)[C@H]2NC(=O)C(=O)Nc1ccc(Cl)c(F)c1)C(=N)N [(+)-BNM-IV-147]
[1]
  IC50: 3.3 ± 0.2 µM
[2]
  IC50: 6.2 ± 0.5 µM
[3]
  IC50: > 100 µM
[4]
  Kd: 0.095 µM
  ΔG: -9.6 kcal/mol
  ΔH: -15.4 kcal/mol
  −TΔS (kcal/mol): +5.8 kcal/mol
[5]
  IC50: 0.8 ± 0.02 µM

## N=C(N)NC[C@H]1Cc2ccccc2[C@@H]1NC(=O)C(=O)Nc1ccc(Cl)c(F)c1 [(+)-DMJ-II-121]
[1]
  IC50: 8.5 ± 2.1 µM
[2]
  IC50: 66.8 ± 9.5 µM
[3]
  IC50: 94.3 ± 5.7 µM
[4]
  ΔG: -9.5 kcal/mol
  ΔH: -17.9 kcal/mol
  −TΔS (kcal/mol): +8.4 kcal/mol
[5]
  IC50: 3.8 ± 1.3 µM

## CC1(C)CC(NC(=O)C(=O)Nc2ccc(Cl)cc2)CC(C)(C)N1 [NBD-556]
[8]
  favorable enthalpy change: -24.5 kcal/mol
  unfavorable entropy change, −TΔS, to Gibbs energy: 17.1 kcal/mol

## CN(Cc1ccc2c(c1)[C@H](NC(=O)C(=O)Nc1ccc(Cl)c(F)c1)[C@@H](CNC(=N)N)C2)C(=N)N [(−)-BNM-IV-197]
[1]
  IC50: 1.3 ± 0.2 µM
[2]
  IC50: 19.5 ± 10.1 µM
[3]
  IC50: 83.7 ± 16.4 µM
[4]
  Kd: 0.095 µM
  ΔG: -9.6 kcal/mol
  ΔH: -14.2 kcal/mol
  −TΔS (kcal/mol): +4.6 kcal/mol
[5]
  IC50: 1.2 ± 0.3 µM
